Source: the supplement of paper PMC10627819

Key:
Details in all cases: main component drawn
[1] = test system: B. subtilis 168; assay: fitness (endpoint OD595 vs no drug) (fraction); higher = more growth
Outline: (§1)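 Fitness is computed from the optical density at which cultures reach stationary phase, divided by the robust mean of no-drug control wells. Any value above 1 is set to 1. Cultures started at OD595 0.01 in 384-well plates with TSB, LB Lennox or CY at 37 °C, and OD595 was read every 30 min for 14 h against a first-reading background.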

[2] = test system: S. pneumoniae D39V; assay: as above
Outline: as §1

[3] = test system: B. subtilis 168; assay: Bliss interaction score (quartile over a dose matrix) (fitness difference); higher = more antagonism (negative = synergy)
Outline: (§2)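 Fitness was derived from optical density at entry into stationary phase, divided by the robust mean of the no-drug wells on the same plate. That reading was taken as OD595, and the ratio was capped at 1. Single-drug fitness was inferred from the combination data. The Bliss score, observed fitness minus the expected product of single-drug fitness, was summarised as quartiles over technical, biological and donor/recipient replicates.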

[4] = test system: S. aureus DSM 20231; assay: as above
Outline: as §2

[5] = test system: S. pneumoniae D39V; assay: as above
Outline: as §2

[6] = test system: S. aureus Newman; assay: as above
Outline: as §2

[7] = test system: S. aureus Newman; assay: fitness (endpoint OD595 vs no drug) (fraction); higher = more growth
Outline: as §1
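Throughout, for Bliss interaction score (quartile over a dose matrix): first quartile when negative (synergy) and third quartile when positive (antagonism).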

COc1c(N2C[C@@H]3CCCN[C@@H]3C2)c(F)cc2c(=O)c(C(=O)O)cn(C3CC3)c12 [Moxifloxacin] + CCC(C)C1C(=O)NC(=C)C(=O)NC(C(=O)NC(CSCC(C(=O)N1)NC(=O)/C(=C/C)/NC(=O)C(C(C)CC)N)C(=O)NC2C(SCC(NC(=O)CNC(=O)C3CCCN3C2=O)C(=O)NC(CCCCN)C(=O)NC4C(SCC(NC(=O)CNC(=O)C(NC(=O)C(NC(=O)C(NC(=O)CNC4=O)C)CC(C)C)CCSC)C(=O)NC(CC(=O)N)C(=O)NC(CCSC)C(=O)NC(CCCCN)C(=O)NC5C(SCC6C(=O)NC(C(=O)NC(CSC(C(C(=O)N6)NC(=O)C(NC5=O)C)C)C(=O)NC(CO)C(=O)NC(C(C)CC)C(=O)NC(CC7=CN=CN7)C(=O)NC(C(C)C)C(=O)NC(=C)C(=O)NC(CCCCN)C(=O)O)CC8=CN=CN8)C)C)C)CC(C)C [Nisin]
Details | fitness
[1], first compound 0.0312 µg/mL, partner 0.5 µg/mL | 0.0551
[1], first compound 0.0312 µg/mL, partner 1 µg/mL | 0.0324
[1], first compound 0.0312 µg/mL, partner 2 µg/mL | 0.0208
[1], first compound 0.0625 µg/mL, partner 0.5 µg/mL | 0.0449
[1], first compound 0.0625 µg/mL, partner 1 µg/mL | 0.0306
[1], first compound 0.0625 µg/mL, partner 2 µg/mL | 0.022
[1], first compound 0.125 µg/mL, partner 0.5 µg/mL | 0.0446
[1], first compound 0.125 µg/mL, partner 1 µg/mL | 0.0343
[1], first compound 0.125 µg/mL, partner 2 µg/mL | 0.0231
[2], first compound 0.0037 µg/mL, partner 0.4275 µg/mL | 0.993
[2], first compound 0.0037 µg/mL, partner 0.855 µg/mL | 0.986
[2], first compound 0.0037 µg/mL, partner 1.71 µg/mL | 0.0722
[2], first compound 0.005 µg/mL, partner 6.4 µg/mL | 0.0381
[2], first compound 0.0075 µg/mL, partner 0.4275 µg/mL | 0.971
[2], first compound 0.0075 µg/mL, partner 0.855 µg/mL | 0.974
[2], first compound 0.0075 µg/mL, partner 1.71 µg/mL | 0.0723
[2], first compound 0.01 µg/mL, partner 6.4 µg/mL | 0.0415
[2], first compound 0.015 µg/mL, partner 0.4275 µg/mL | 0.898
[2], first compound 0.015 µg/mL, partner 0.855 µg/mL | 0.922
[2], first compound 0.015 µg/mL, partner 1.71 µg/mL | 0.089
[2], first compound 0.02 µg/mL, partner 6.4 µg/mL | 0.0317

fitness, [1], one replicate
Details | first compound 0.0312 µg/mL | first compound 0.0625 µg/mL | first compound 0.125 µg/mL | first compound 2 µg/mL | first compound 4 µg/mL | first compound 8 µg/mL
partner 0.5 µg/mL | – | – | – | 0.0297 | 0.0204 | 0.0134
partner 1 µg/mL | – | – | – | 0.0435 | 0.031 | 0.0236
partner 1.25 µg/mL | 0.0287 | 0.0387 | 0.0145 | – | – | –
partner 1.6 µg/mL | 0.0362 | 0.0251 | 0.0203 | – | – | –
partner 2 µg/mL | – | – | – | 0.0532 | 0.0341 | 0.0259
partner 2.5 µg/mL | 0.037 | 0.0186 | 0.0151 | – | – | –
partner 3.2 µg/mL | 0.0222 | 0.0273 | 0.0354 | – | – | –
partner 4 µg/mL | – | – | – | 0.0258 | 0.0254 | 0.0138
partner 5 µg/mL | 0.0373 | 0.0148 | 0.0138 | – | – | –
partner 6.4 µg/mL | 0.0438 | 0.0244 | 0.0155 | – | – | –
partner 8 µg/mL | – | – | – | 0.0213 | 0.0075 | 0.0166
partner 16 µg/mL | – | – | – | 0.008 | 0.0061 | 0.0096

Details | Bliss interaction score
[3] | 0.0196
[4] | 0.0667
[5] | 0.116
[6] | -0.0568

C/C(=C\C(=O)OCCCCCCCCC(=O)O)C[C@@H]1OC[C@H](C[C@@H]2O[C@H]2[C@@H](C)[C@H](C)O)[C@@H](O)[C@H]1O [Pseudomonic acid] + CCCCCCCCCC(=O)N[C@@H]1[C@H]([C@@H]([C@H](O[C@H]1OC2=C3C=C4C=C2OC5=C(C=C(C=C5)[C@H]([C@H]6C(=O)N[C@@H](C7=C(C(=CC(=C7)O)OC8[C@H]([C@H]([C@@H]([C@H](O8)CO)O)O)O)C9=C(C=CC(=C9)[C@H](C(=O)N6)NC(=O)[C@@H]4NC(=O)[C@@H]1C2=CC(=CC(=C2)OC2=C(C=CC(=C2)[C@H](C(=O)N[C@H](CC2=CC(=C(O3)C=C2)Cl)C(=O)N1)N)O)O)O)C(=O)O)O[C@H]1[C@@H]([C@H]([C@@H]([C@H](O1)CO)O)O)NC(=O)C)Cl)CO)O)O [Teicoplanin]
fitness, [7], one replicate
Details | first compound 0.0313 µg/mL | first compound 0.0625 µg/mL | first compound 0.125 µg/mL
partner 0.1562 µg/mL | 0.0547 | 0.0391 | 0.0327
partner 0.3125 µg/mL | 0.0341 | 0.0111 | 0.005
partner 0.625 µg/mL | 0.0079 | 0.0049 | 0.0139

Details | Bliss interaction score
[3] | 0.116
[4] | -0.0304
[5] | 0.0843
[6] | -0.0375

CCCCCCCCCC(=O)N[C@H]1[C@H](Oc2c3cc4cc2Oc2ccc(cc2Cl)[C@@H](O[C@@H]2O[C@H](CO)[C@@H](O)[C@H](O)[C@H]2NC(C)=O)[C@@H]2NC(=O)[C@H](NC(=O)[C@@H]4NC(=O)[C@H]4NC(=O)[C@@H](Cc5ccc(c(Cl)c5)O3)NC(=O)[C@H](N)c3ccc(O)c(c3)Oc3cc(O)cc4c3)c3ccc(O)c(c3)-c3c(O[C@H]4O[C@H](CO)[C@@H](O)[C@H](O)[C@@H]4O)cc(O)cc3[C@@H](C(=O)O)NC2=O)O[C@H](CO)[C@@H](O)[C@@H]1O [Teicoplanin] + CN(C)c1cc(NC(=O)CNC(C)(C)C)c(O)c2c1C[C@H]1C[C@H]3[C@H](N(C)C)C(O)=C(C(N)=O)C(=O)[C@@]3(O)C(O)=C1C2=O [Tigecycline]
fitness, [7]
Details | first compound 0.1562 µg/mL | first compound 0.3125 µg/mL | first compound 0.625 µg/mL
partner 0.039 µg/mL | ≥ 1 | 0.98 | ≥ 1
partner 0.078 µg/mL | ≥ 1 | 0.963 | ≥ 1
partner 0.156 µg/mL | ≥ 1 | ≥ 1 | ≥ 1

fitness, [7], one replicate
Details | first compound 0.62 µg/mL | first compound 1.24 µg/mL | first compound 2.48 µg/mL
partner 0.039 µg/mL | 0.757 | 0.736 | 0.456
partner 0.078 µg/mL | 0.754 | 0.746 | 0.453
partner 0.156 µg/mL | 0.813 | 0.756 | 0.427

Details | Bliss interaction score
[3] | 0.123
[4] | 0.108
[5] | 0.0619
[6] | 0.0513
